From patent US7994399B2, “Methods for the production of stably transformed, fertile Zea mays plants” (BASF Plant Science GmbH, priority 2005, dated 2011)
Marks after values point to notes of the source that are not given here.

Legend:
[1] = test system: Zea mays immature embryos; experiment: Agrobacterium-mediated transformation of maize immature embryos, additives in the co-cultivation medium; assay type: cell-based; conditions: for Average TE (%) (transformation efficiency): L-cysteine added (+) to co-cultivation medium, split-cob design, drop inoculation
Method: Adjust pH media to 5.8 with 1 M NaOH. Weigh 4 g Sigma Purified Agar per bottle (8 g/L) and dispense 500 mL media per bottle, autoclave. When cooled add AgNO3 (stock at 15 mM) to a final concentration of 15 μM and L-cysteine (stock at 150 mg/ml) to a final concentration 300 mg/l. Pour into 100×20 mm Petri plates. Medium containing acetosyringone should be used freshly without long term storage.
Excised immature embryos are directly put on the co-cultivation medium (medium A-3) with the flat side down (scutellum upward). Each plate (20×100 mm plate) can hold up to 100 immature embryos. Put 5 μl of diluted Agrobacterium cell suspension to each immature embryo with a repeat pipettor. Remove excess moisture covering immature embryos by leaving the plate cover open in the hood for about 15 min. Seal the plate with 3M micropore tape and wrap with aluminum foil. Incubate the plate in the dark at 22° C. for 2 to 3 days. Take 3-5 immature embryos for GUS staining if a GUS construct is used to assess transient GUS expression.

Maize XA17 mutants = conditions: cited from earlier work
XI12 mutant maize lines = conditions: cited from earlier work
[2] = addition to co-cultivation medium, BPS553×(HiIIA×A188) genotypes

For O=[N+]([O-])[O-].[Ag+] [silver nitrate], the “Effect on transformation efficiency” value [1, 2] was “further enhances transformation efficiency”.

For CC(C)C1(C)N=C(c2nc3ccccc3cc2C(=O)O)NC1=O (stereo not drawn) [imazaquin], the “Resistance or tolerance of the plants to the herbicide” value (Maize XA17 mutants) is listed as “highly resistant” and the “Resistance or sensitivity of the plants to the herbicide” value (XI12 mutant maize lines) is listed as “sensitive”.

For N[C@@H](CS)C(=O)O [L-Cysteine], the “Effect on transformation efficiency” value [1, 2] was “further enhances transformation efficiency”, the “Average TE (%) (transformation efficiency)” value ([1]; hybrid BPS553x(HillAxA188), 20 experiments) was 32.2* % and the “Average TE (%) (transformation efficiency)” value ([1]; inbred BPS553, 27 experiments) was 9.6* %. The “Effect on transformation efficiency” value ([1]; presence in the co-cultivation medium) was “significantly increasing transformation efficiency”.

For CCc1cnc(C2=NC(C)(C(C)C)C(=O)N2)c(C(=O)O)c1 (stereo not drawn) [imazethapyr], the “Resistance or tolerance of the plants to the herbicide” value (Maize XA17 mutants) is given as “highly resistant” and the “Resistance or sensitivity of the plants to the herbicide” value (XI12 mutant maize lines) is given as “highly resistant”.
